This passage reports IC50 results from ChEMBL document CHEMBL1128376, “Carbethoxylating agents as inhibitors of aldehyde dehydrogenase” (J Med Chem, 1995).

The subject of this test is aldehyde dehydrogenase (Saccharomyces cerevisiae). The test is described as follows: In vitro inhibition against yeast aldehyde dehydrogenase; IA means In active.

Turning to `CCOC=O` [ETHOXYCARBONYL GROUP], the IC50 result is “Not Active”.
